# Results published in US8557796B2, “Substituted 1-oxa-2,8-diaza-spiro [4,5] dec-2-ene derivatives and related treatment methods” (Gruenenthal GmbH, priority 2001, dated 2013).
# Test system: batrachotoxin (BTX) binding site (binding site 2) of the sodium channel
# Test: Bond test on the sodium channel, binding site 2 (BTX bond), [3H]-batrachotoxinin A20 α-benzoate displacement
# Details: rat cerebrocortex synaptosomes
row,Compound,"BTX bond, 10 μM, % inhibition [%]"
1,"Cc1cc(C(=O)N2CCC3(CC2)CC(C(=O)NCC(C)C)=NO3)ccc1Br [Example 88, 8-(4-bromo-3-methyl-benzoyl)-1-oxa-2,8-diaza-spiro[4,5]dec-2-ene-3-carboxylic acid isobutyl-amide]",45
2,"CN(C)S(=O)(=O)N1CCC2(CC1)CC(C(=O)N1CCN(Cc3ccc4ccccc4c3)CC1)=NO2 [Example 65, 3-(4-naphthalen-2-ylmethyl-piperazine-1-carbonyl)-1-oxa-2,8-diaza-spiro[4,5]dec-2-ene-8-sulphonic acid dimethylamide]",67
3,"CC(C)CC(NC(=O)C1=NOC2(CCN(S(=O)(=O)c3cccc(C(F)(F)F)c3)CC2)C1)C(=O)OC(C)(C)C (centres unmarked) [Example 214, 4-methyl-2-{[8-(3-trifluoromethyl-benzenesulphonyl)-1-oxa-2,8-diaza-spiro[4,5]dec-2-ene-3-carbonyl]-amino}-pentanoic acid tert-butyl ester]",61
4,"CC(Oc1ccccc1)C(=O)N1CCC2(CC1)CC(C(=O)NCc1ccccc1)=NO2 (centres unmarked) [Example 149, 8-(2-phenoxy-propionyl)-1-oxa-2,8-diaza-spiro[4,5]dec-2-ene-3-carboxylic acid benzylamide]",40
5,"O=C(NCc1ccccc1)C1=NOC2(CCN(C(=O)c3cccc(SC(F)F)c3)CC2)C1 [Example 180, 8-(3-difluoromethylsulphanyl-benzoyl)-1-oxa-2,8-diaza-spiro[4,5]dec-2-ene-3-carboxylic acid benzylamide]",57
6,O=C(NC1CCCC1)C1=NOC2(CCN(C(=O)c3ccccc3COC(=O)c3ccccc3)CC2)C1 [Example 188],77
7,"Cc1cc(C(=O)N2CCC3(CC2)CC(C(=O)NCc2ccccc2)=NO3)c(C)o1 [Example 217, 8-(2,5-dimethyl-furan-3-carbonyl)-1-oxa-2,8-diaza-spiro[4,5]dec-2-ene-3-carboxylic acid benzylamide]",51
8,"Cc1onc(-c2c(F)cccc2Cl)c1C(=O)N1CCC2(CC1)CC(C(=O)NCc1ccccc1)=NO2 [Example 177, 8-[3-(2-chloro-6-fluorophenyl)-5-methyl-isoxazole-4-carbonyl]-1-oxa-2,8-diaza-spiro [4,5]dec-2-ene-3-carboxylic acid benzylamide]",45
9,COc1cccc(CN2CCC(NC(=O)C3=NOC4(CCN(S(=O)(=O)c5cc(Cl)ccc5Cl)CC4)C3)C2)c1 (centres unmarked) [Example 64],91
10,"CCCC(=O)N1CCC2(CC1)CC(C(=O)NC1CCN(C(=O)OCC)CC1)=NO2 [Example 74, 4-[(8-butyryl-1-oxa-2,8-diaza-spiro[4,5]dec-2-ene-3-carbonyl)-amino]-piperidine-l-carboxylic acid ethyl ester]",47
11,"O=C(NCc1cccs1)C1=NOC2(CCN(S(=O)(=O)c3ccc([N+](=O)[O-])cc3)CC2)C1 [Example 38, 8-(4-nitro-benzenesulphonyl)-1-oxa-2,8-diaza-spiro[4,5]dec-2-ene-3-carboxylic acid (thiophen-2-ylmethyl)-amide]",65
12,"Cc1ccc(C(C)NC(=O)C2=NOC3(CCN(S(=O)(=O)c4cccs4)CC3)C2)cc1 (centres unmarked) [Example 23, 8-(thiophene-2-sulphonyl)-1-oxa-2,8-diaza-spiro[4,5]dec-2-ene-3-carboxylic acid (1-p-tolyl-ethyl)-amide]",60
13,"O=C(NCc1ccccc1F)C1=NOC2(CCN(S(=O)(=O)c3ccc(F)cc3)CC2)C1 [Example 207, 8-(4-fluoro-benzenesulphonyl)-1-oxa-2,8-diaza-spiro[4,5]dec-2-ene-3-carboxylic acid 2 fluorobenzylamide]",56
14,O=C(Cc1ccc(F)c(F)c1)N1CCN(C(=O)C2=NOC3(CCN(S(=O)(=O)c4cccc(C(F)(F)F)c4)CC3)C2)CC1 [Example 93],52
15,"Cc1ccc(S(=O)(=O)N2CCC3(CC2)CC(C(=O)N2CCN(c4ccc(C)cc4C)CC2)=NO3)cc1 [Example 33, [4-(2,4-dimethyl-phenyl)-piperazin-l-yl]-[8-(toluene-4-sulphonyl)-1-oxa-2,8-diazaspiro[4,5]dec-2-en-3-yl]methanone]",67
16,"O=C(NC1CCN(Cc2ccc(C(F)(F)F)cc2)C1)C1=NOC2(CCN(S(=O)(=O)c3cccs3)CC2)C1 (centres unmarked) [Example 26, 8-(thiophene-2-sulphonyl)-1-oxa-2,8-diaza-spiro[4,5]dec-2-ene-3-carboxylic acid [1-(4-trifluoromethyl-benzyl)-pyrrolidin-3-yl]-amide]",84
17,"O=C(NC1CCCC1OCc1ccccc1)C1=NOC2(CCN(S(=O)(=O)Cc3ccccc3)CC2)C1 (centres unmarked) [Example 20, 8-phenylmethanesulphonyl-1-oxa-2,8-diaza-spiro[4,5]dec-2-ene-3-carboxylic acid (2-benzyloxy-cyclopentyl)-amide]",69
18,"Cc1oc(C(C)(C)C)cc1C(=O)N1CCC2(CC1)CC(C(=O)NC1CCCC1)=NO2 [Example 126, 8-(5-tert-butyl-2-methyl-furan-3-carbonyl)-1-oxa-2,8-diaza-spiro[4,5]dec-2-ene-3-carboxylic acid cyclopentylamide]",56
19,"O=C(NC1CCCC1OCc1ccccc1)C1=NOC2(CCN(S(=O)(=O)c3cccc(C(F)(F)F)c3)CC2)C1 (centres unmarked) [Example 201, 8-(3-trifluoromethyl-benzenesulphonyl)-1-oxa-2,8-diaza-spiro[4,5]dec-2-ene-3-carboxylic acid (2-benzyloxy-cyclopentyl)-amide]",61
20,"O=C(C1=NOC2(CCN(S(=O)(=O)c3cccs3)CC2)C1)N1CCN(CCCc2ccccc2)CC1 [Example 14, [4-(3-phenyl-propyl)-piperazin-l-yl]-[8-(thiophene-2-sulphonyl)-1-oxa-2,8-diaza-spiro[4,5]dec-2-en-3-yl]-methanone]",79
